Source: the supplement of paper PMC10307832

Legend:
Test in all cases: relative viability (nuclei count vs DMSO), 5 days (fraction); higher = more cells survive
[1] = compound: C1CNCCC1C2=CC(=NN2)C3=CC=NC=C3 + N=C(N)NC(=N)NCCc1ccccc1 [Phenformin] (partner 250 µM)
In short: (§1)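 Five library-drug doses in √10 steps were combined with a fixed anchor-drug dose, or a single drug was given alone, by pin tool to lung cancer cell lines in 1536-well plates the day after seeding. Nuclei were stained and counted after 5 days. Relative viability is the nuclei count in treated wells over that in vehicle wells, taken as the median of duplicate plates.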

Tanzisertib + Bortezomib = compound: O[C@H]1CC[C@H](Nc2ncc3nc(Nc4c(F)cc(F)cc4F)n([C@H]4CCOC4)c3n2)CC1 [Tanzisertib] + CC(C)C[C@H](NC(=O)[C@H](Cc1ccccc1)NC(=O)c1cnccn1)B(O)O [Bortezomib] (partner 0.002 µM)
In short: as §1

[2] = compound: C[C@@H](N)c1ccc(C(=O)Nc2ccnc3[nH]ccc23)cc1 + Cc1nc(Nc2ncc(C(=O)Nc3c(C)cccc3Cl)s2)cc(N2CCN(CCO)CC2)n1 [Dasatinib] (partner 0.075 µM)
In short: as §1

[3] = compound: C1CNCCC1C2=CC(=NN2)C3=CC=NC=C3 + C[C@@H](Oc1cc(-c2cnn(C3CCNCC3)c2)cnc1N)c1c(Cl)ccc(F)c1Cl [Crizotinib] (partner 1 µM)
In short: as §1

Row | Cell Line | relative viability ([1]; first compound 0.08 µM) | relative viability ([1]; first compound 0.8 µM) | relative viability ([1]; first compound 2.53 µM) | relative viability ([1]; first compound 8 µM) | relative viability (Tanzisertib + Bortezomib; first compound 0.08 µM) | relative viability (Tanzisertib + Bortezomib; first compound 0.253 µM) | relative viability (Tanzisertib + Bortezomib; first compound 0.8 µM) | relative viability (Tanzisertib + Bortezomib; first compound 2.53 µM) | relative viability (Tanzisertib + Bortezomib; first compound 8 µM) | relative viability ([2]; first compound 0.04 µM) | relative viability ([2]; first compound 0.1265 µM) | relative viability ([2]; first compound 0.4 µM) | relative viability ([2]; first compound 1.265 µM) | relative viability ([2]; first compound 4 µM) | relative viability ([3]; first compound 0.08 µM) | relative viability ([3]; first compound 0.8 µM) | relative viability ([3]; first compound 2.53 µM) | relative viability ([3]; first compound 8 µM)
1 | HCC-827 | 0.375 | 0.392 | 0.414 | 0.358 | 0.952 | 1.06 | 1.12 | 1.04 | 0.701 | 0.411 | 0.466 | 0.433 | 0.46 | 0.267 | 0.979 | 0.932 | 1.01 | 0.883
2 | HOP-62 | 0.602 | 0.844 | 0.756 | 0.621 | 0.803 | 0.974 | 1.01 | 0.726 | 0.704 | 0.435 | 0.632 | 0.617 | 0.515 | 0.303 | 0.682 | 1.11 | 0.942 | 0.978
3 | IA-LM | – | – | – | – | 0.925 | 0.803 | 0.777 | 0.867 | 0.977 | – | – | – | – | – | 0.842 | 0.839 | 1.14 | 0.92
4 | LC-2-ad | – | 0.676 | 0.639 | 0.612 | 1.05 | 1.08 | 1.05 | 1.09 | 1.01 | 0.717 | 0.639 | 0.814 | – | 0.389 | 0.491 | 0.478 | 0.445 | 0.456
5 | LCLC-97TM1 | 0.328 | 0.511 | 0.437 | 0.396 | 1.13 | 1.24 | 0.784 | 0.957 | 0.518 | 0.989 | 0.905 | 0.984 | 0.879 | 0.794 | 0.348 | 0.429 | 0.408 | 0.406
6 | LCLC-103H | 0.318 | 0.351 | 0.361 | 0.342 | 1.15 | 1.06 | 1.04 | 1.18 | 1.16 | 0.363 | 0.506 | 0.474 | 0.285 | 0.279 | 1.11 | 1.04 | 1.07 | 0.935
7 | LK-2 | 0.354 | 0.377 | 0.547 | 0.494 | – | – | – | – | – | 0.375 | – | 0.339 | – | 0.424 | 0.232 | 0.252 | 0.221 | 0.265
8 | LOU-NH91 | 0.771 | 0.787 | 0.867 | 0.781 | 0.49 | 0.516 | 0.493 | 0.502 | 0.543 | 0.425 | 0.571 | 0.527 | 0.492 | 0.394 | 0.718 | 0.733 | 0.78 | 0.742
9 | LU99A | 0.748 | 0.877 | 0.956 | 0.874 | 1.29 | 1.07 | 1.08 | 1.19 | 1.31 | – | 0.507 | 0.536 | 0.495 | 0.508 | 0.5 | 0.586 | 0.596 | 0.558
10 | LXF-289 | 0.449 | 0.48 | 0.533 | 0.496 | 1.1 | 1.03 | 1.03 | 0.977 | 1.04 | 0.105 | 0.234 | 0.185 | 0.11 | 0.116 | 0.842 | 0.88 | 0.801 | 0.837
11 | NCI-H23 | 0.722 | 0.894 | 0.828 | 0.847 | 1.18 | 0.979 | 0.875 | 1.11 | 1.17 | 0.77 | 0.736 | 0.862 | – | 0.76 | 0.431 | 0.499 | 0.499 | 0.518
12 | NCI-H322M | 0.796 | 0.77 | 0.856 | 0.864 | 1.25 | 1.21 | 1.32 | 1.14 | 1.18 | 0.242 | 0.253 | 0.266 | – | 0.318 | 0.851 | 0.875 | 0.878 | 0.955
13 | NCI-H358 | 0.199 | 0.361 | 0.339 | 0.28 | – | – | – | – | – | 0.173 | 0.193 | 0.169 | 0.165 | 0.18 | 0.479 | 0.526 | 0.633 | 0.474
14 | NCI-H522 | 0.552 | 0.657 | 0.771 | 0.689 | – | – | – | – | – | 0.797 | 0.931 | 0.827 | 0.771 | 0.765 | – | – | – | –
15 | NCI-H1299 | – | – | – | – | 1.03 | 1.02 | 1.07 | 1.08 | 1.13 | – | – | – | – | – | 0.991 | 1 | 0.99 | 0.9
16 | NCI-H1395 | 0.419 | 0.342 | 0.419 | 0.497 | – | – | – | – | – | 0.416 | 0.431 | 0.368 | 0.394 | 0.399 | – | – | – | –
17 | NCI-H1623 | 0.6 | 0.502 | 0.642 | 0.637 | – | – | – | – | – | 0.619 | 0.501 | 0.602 | 0.21 | 0.709 | – | – | – | –
18 | NCI-H1703 | – | – | – | – | 0.328 | 0.326 | 0.293 | 0.377 | 0.248 | – | – | – | – | – | 0.823 | 0.813 | 0.824 | 1.01
19 | NCI-H1793 | 0.307 | 0.162 | 0.441 | 0.426 | – | – | – | – | – | 0.308 | 0.419 | 0.418 | – | 0.298 | – | – | – | –
20 | NCI-H1944 | 0.18 | 0.185 | 0.209 | 0.173 | – | – | – | – | – | 0.183 | 0.192 | 0.182 | 0.183 | 0.159 | 1.06 | 1.08 | 1.1 | 1.08
21 | NCI-H2170 | 0.433 | 0.394 | 0.456 | 0.441 | – | – | – | – | – | 0.774 | 0.595 | 0.639 | 0.518 | 0.528 | 1.04 | 1.23 | 1.42 | 1.15
22 | NCI-H2342 | 0.512 | 0.501 | 0.688 | 0.631 | – | – | – | – | – | 0.342 | 0.357 | 0.322 | 0.317 | 0.327 | – | – | – | –
23 | SK-MES-1 | 0.635 | 0.68 | 0.634 | 0.603 | – | – | – | – | – | 0.398 | 0.398 | 0.358 | 0.279 | 0.334 | 1.03 | 0.995 | 0.992 | 0.94
24 | SW 900 | 0.64 | 0.548 | 0.738 | 0.628 | – | – | – | – | – | 0.722 | 0.549 | 0.606 | 0.44 | 0.488 | – | – | – | –
